From patent US10870647B2, “Imidazopyridine derivative, method for preparing same, and pharmaceutical composition containing same as active ingredient for preventing or treating cancer” (DAEGU-GYEONGBUK MEDICAL INNOVATION FOUNDATION, priority 2016, dated 2020)

Key:
Test in all cases: Kinase selectivity, scanMAX Kinase assay panel (DiscoverX), % control at 1 uM
Assay type in all cases: binding
[1] = target: T1, scanMAX Kinase assay panel (Homo sapiens, UniProt P57059); conditions: SIK; 1 uM; read-out: Percent Control (%)
T1 construct: purchased DiscoverX
T1 sequence (P57059 whole entry): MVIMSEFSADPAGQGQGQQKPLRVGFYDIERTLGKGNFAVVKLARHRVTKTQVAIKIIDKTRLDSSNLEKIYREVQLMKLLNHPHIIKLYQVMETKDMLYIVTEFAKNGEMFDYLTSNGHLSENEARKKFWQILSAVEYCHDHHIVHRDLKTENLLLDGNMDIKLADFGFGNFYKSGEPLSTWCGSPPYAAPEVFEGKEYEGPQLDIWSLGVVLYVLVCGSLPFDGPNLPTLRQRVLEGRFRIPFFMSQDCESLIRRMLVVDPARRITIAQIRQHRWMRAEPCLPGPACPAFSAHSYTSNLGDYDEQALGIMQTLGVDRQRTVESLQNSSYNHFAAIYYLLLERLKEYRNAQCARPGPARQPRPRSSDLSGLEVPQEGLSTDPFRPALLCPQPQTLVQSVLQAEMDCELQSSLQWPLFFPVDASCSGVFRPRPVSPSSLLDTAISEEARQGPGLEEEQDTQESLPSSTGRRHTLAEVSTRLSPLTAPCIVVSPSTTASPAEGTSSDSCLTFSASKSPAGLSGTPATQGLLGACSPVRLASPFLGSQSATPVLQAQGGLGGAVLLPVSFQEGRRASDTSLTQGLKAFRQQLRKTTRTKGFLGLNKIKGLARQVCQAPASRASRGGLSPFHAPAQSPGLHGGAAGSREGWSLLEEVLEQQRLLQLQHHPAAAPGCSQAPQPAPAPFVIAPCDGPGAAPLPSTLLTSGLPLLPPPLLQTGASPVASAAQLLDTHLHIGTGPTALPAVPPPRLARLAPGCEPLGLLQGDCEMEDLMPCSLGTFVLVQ
Procedure, shortened: (§1)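 Read-out is percent of control, derived from the signal with compound relative to positive and negative controls: (compound − positive)/(negative − positive) × 100. Each enzyme received test drug at 1 uM in DMSO, and values under 35% count as active.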

[2] = target: T2, scanMAX Kinase assay panel (Homo sapiens, UniProt Q12852); conditions: DLK; 1 uM; read-out: Percent Control (%)
T2 construct: purchased DiscoverX
T2 sequence (Q12852 1-859): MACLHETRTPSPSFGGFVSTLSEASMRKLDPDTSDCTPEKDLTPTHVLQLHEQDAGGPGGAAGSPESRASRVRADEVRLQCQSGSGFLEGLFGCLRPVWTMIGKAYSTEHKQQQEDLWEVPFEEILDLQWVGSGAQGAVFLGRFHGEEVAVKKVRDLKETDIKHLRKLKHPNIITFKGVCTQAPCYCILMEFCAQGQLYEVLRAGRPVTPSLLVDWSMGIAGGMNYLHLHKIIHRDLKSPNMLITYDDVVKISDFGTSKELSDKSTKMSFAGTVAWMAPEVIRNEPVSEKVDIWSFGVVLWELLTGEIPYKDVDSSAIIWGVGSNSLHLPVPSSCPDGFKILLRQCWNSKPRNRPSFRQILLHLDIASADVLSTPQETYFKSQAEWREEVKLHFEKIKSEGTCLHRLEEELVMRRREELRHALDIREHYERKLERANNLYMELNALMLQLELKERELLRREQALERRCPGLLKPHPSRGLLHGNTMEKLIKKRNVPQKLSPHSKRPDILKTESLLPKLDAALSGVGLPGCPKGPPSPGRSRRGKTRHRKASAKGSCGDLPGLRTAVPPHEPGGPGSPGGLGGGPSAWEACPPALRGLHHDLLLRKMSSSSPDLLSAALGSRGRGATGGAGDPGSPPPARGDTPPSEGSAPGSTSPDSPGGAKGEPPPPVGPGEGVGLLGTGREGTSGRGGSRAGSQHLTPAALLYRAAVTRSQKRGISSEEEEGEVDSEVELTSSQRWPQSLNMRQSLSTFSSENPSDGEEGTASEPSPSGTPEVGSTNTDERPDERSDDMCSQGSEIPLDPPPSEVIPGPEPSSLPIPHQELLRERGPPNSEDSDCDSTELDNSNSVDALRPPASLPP
Procedure, shortened: as §1

[3] = target: T3, scanMAX Kinase assay panel (Homo sapiens, UniProt Q99558); conditions: NIK; 1 uM; read-out: Percent Control (%)
T3 construct: purchased DiscoverX
Procedure, shortened: as §1

[4] = target: T4, scanMAX Kinase assay panel (Homo sapiens, UniProt O75385); conditions: ULK1; 1 uM; read-out: Percent Control (%)
T4 construct: purchased DiscoverX
T4 sequence (O75385 1-1050): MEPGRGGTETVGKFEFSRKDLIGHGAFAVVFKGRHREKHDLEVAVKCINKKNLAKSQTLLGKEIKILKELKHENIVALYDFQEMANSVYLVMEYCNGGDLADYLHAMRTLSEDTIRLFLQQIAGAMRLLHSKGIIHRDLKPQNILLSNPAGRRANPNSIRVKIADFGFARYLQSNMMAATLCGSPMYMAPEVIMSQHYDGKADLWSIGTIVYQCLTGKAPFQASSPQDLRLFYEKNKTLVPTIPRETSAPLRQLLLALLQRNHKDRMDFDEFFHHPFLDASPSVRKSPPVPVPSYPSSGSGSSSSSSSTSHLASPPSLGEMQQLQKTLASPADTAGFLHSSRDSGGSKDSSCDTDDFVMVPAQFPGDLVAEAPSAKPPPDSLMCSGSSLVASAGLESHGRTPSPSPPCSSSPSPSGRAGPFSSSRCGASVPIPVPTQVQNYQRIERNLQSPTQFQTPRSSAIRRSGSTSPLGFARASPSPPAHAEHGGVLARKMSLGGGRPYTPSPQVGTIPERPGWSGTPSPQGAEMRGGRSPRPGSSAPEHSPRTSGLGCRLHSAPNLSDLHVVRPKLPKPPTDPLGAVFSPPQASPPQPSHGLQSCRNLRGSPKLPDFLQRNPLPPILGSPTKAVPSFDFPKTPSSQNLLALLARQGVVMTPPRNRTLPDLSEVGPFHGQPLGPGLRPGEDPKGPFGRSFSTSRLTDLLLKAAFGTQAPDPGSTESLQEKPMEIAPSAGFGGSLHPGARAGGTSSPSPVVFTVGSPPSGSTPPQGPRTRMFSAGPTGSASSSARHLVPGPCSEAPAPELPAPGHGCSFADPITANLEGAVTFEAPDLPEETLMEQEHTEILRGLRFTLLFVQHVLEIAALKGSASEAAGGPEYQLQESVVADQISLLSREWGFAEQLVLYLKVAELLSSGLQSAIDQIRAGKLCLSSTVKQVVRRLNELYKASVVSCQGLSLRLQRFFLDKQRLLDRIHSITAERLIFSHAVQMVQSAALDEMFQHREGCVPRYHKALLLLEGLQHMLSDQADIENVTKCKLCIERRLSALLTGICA
Procedure, shortened: as §1

[5] = target: T5, scanMAX Kinase assay panel (Homo sapiens, UniProt P49760); conditions: CLK2; 1 uM; read-out: Percent Control (%)
T5 construct: purchased DiscoverX
T5 sequence (P49760 whole entry): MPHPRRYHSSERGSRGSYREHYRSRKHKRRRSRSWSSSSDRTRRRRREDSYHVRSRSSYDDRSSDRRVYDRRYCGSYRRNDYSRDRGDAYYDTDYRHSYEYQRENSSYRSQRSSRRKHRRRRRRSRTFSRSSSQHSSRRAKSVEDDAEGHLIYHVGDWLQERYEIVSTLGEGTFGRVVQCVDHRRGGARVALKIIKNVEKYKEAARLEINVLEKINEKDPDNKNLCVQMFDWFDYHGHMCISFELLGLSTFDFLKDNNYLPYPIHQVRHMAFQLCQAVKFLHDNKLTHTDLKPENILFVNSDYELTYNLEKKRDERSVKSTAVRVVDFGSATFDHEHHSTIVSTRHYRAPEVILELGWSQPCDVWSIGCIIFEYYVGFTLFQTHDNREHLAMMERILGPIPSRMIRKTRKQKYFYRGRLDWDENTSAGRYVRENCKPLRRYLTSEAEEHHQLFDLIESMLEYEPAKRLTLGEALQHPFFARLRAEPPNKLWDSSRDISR
Procedure, shortened: as §1

[6] = target: T6, scanMAX Kinase assay panel (Homo sapiens, UniProt Q14289); conditions: PYK2; 1 uM; read-out: Percent Control (%)
T6 construct: purchased DiscoverX
Procedure, shortened: as §1

[7] = target: T7, scanMAX Kinase assay panel (Homo sapiens, UniProt Q9H3Y6); conditions: SRMS; 1 uM; read-out: Percent Control (%)
T7 construct: purchased DiscoverX
T7 sequence (Q9H3Y6 whole entry): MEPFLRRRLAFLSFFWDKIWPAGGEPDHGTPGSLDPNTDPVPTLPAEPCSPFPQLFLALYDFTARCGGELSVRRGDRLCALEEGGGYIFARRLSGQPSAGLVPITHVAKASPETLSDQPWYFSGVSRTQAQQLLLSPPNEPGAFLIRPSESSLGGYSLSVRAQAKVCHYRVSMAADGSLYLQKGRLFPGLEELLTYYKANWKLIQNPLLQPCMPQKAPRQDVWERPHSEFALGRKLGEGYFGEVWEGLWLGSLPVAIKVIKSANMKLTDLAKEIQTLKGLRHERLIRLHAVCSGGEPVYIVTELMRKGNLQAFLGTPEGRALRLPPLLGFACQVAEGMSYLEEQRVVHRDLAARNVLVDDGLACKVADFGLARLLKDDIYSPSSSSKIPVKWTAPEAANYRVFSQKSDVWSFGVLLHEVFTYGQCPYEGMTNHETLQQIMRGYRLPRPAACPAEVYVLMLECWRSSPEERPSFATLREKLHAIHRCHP
Procedure, shortened: as §1

[8] = target: T8, scanMAX Kinase assay panel (Homo sapiens, UniProt Q9UM73); conditions: ALK; 1 uM; read-out: Percent Control (%)
T8 construct: purchased DiscoverX
T8 sequence (Q9UM73 19-1620): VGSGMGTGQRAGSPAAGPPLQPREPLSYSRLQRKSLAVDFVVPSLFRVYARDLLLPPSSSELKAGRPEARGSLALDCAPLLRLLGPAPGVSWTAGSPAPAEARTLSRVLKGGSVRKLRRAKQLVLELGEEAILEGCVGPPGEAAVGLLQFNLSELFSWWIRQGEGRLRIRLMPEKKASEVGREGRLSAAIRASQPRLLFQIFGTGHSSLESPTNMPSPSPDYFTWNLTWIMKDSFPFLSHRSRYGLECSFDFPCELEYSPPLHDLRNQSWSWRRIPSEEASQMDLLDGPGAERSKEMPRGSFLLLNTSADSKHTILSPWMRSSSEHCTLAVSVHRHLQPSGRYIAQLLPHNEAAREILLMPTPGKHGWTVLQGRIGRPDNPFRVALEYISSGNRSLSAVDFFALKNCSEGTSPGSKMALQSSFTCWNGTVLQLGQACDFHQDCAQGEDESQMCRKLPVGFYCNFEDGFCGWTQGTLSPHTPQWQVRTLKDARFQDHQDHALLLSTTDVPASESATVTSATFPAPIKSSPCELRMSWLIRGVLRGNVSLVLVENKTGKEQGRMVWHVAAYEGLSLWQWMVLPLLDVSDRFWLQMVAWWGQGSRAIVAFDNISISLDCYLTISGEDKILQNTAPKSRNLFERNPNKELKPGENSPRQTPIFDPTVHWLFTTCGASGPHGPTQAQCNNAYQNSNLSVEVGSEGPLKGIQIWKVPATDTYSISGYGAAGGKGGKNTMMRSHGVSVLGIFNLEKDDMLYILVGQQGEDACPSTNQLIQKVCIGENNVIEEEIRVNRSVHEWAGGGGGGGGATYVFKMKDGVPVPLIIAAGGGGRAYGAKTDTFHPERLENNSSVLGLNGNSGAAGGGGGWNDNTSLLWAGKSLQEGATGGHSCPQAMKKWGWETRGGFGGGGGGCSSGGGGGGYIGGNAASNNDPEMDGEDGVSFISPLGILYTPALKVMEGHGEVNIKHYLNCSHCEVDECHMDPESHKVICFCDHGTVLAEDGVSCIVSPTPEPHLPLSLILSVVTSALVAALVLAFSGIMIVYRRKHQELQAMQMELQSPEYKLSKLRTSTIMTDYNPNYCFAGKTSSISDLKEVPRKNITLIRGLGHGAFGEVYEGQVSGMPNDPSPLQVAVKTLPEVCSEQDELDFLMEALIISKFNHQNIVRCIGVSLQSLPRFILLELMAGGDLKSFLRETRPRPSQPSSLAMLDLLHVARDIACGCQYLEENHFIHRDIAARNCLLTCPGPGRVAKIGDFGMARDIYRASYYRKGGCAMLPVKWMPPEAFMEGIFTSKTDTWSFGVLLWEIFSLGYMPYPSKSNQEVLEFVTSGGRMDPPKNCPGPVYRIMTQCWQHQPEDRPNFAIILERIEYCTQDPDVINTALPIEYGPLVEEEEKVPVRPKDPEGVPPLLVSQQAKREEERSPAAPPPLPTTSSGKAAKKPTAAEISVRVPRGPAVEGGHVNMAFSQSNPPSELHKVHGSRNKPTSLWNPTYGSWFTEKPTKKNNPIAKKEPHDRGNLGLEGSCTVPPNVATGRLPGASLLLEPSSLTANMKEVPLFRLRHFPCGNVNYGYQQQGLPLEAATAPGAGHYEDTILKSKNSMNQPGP
Procedure, shortened: as §1

[9] = target: T9, scanMAX Kinase assay panel (Homo sapiens, UniProt P10721, V559D/V654A); conditions: KIT (V559D, V654A); 1 uM; read-out: Percent Control (%)
T9 construct: purchased DiscoverX
T9 sequence (P10721 26-976 V559D/V654A): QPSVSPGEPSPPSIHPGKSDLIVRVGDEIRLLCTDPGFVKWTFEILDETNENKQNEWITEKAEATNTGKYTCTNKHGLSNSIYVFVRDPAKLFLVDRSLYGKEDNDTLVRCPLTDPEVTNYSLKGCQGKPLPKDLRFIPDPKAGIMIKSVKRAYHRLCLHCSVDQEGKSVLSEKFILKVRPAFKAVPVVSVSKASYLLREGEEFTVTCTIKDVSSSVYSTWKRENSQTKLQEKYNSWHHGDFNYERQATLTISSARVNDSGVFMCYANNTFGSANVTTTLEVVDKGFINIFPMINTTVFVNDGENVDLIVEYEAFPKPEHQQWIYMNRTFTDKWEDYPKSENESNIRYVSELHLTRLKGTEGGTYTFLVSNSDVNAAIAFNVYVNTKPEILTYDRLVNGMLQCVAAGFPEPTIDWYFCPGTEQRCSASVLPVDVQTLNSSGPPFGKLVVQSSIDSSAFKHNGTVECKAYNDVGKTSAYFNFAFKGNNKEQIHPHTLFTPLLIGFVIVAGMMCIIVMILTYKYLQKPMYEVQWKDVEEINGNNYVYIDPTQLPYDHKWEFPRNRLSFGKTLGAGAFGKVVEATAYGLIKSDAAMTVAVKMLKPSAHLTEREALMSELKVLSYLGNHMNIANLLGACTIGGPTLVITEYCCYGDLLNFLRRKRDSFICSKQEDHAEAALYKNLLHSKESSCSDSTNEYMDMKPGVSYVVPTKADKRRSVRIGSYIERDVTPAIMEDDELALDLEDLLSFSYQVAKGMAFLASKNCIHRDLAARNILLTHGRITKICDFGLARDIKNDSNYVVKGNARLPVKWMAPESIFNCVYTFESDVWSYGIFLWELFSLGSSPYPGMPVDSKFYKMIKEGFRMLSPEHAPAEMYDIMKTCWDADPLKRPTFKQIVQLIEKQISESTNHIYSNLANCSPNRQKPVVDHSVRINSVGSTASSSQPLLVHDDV
Procedure, shortened: as §1

[10] = target: T10, scanMAX Kinase assay panel (Mycobacterium tuberculosis, UniProt P9WI81); conditions: read-out: Percent Control (%)
T10 construct: purchased DiscoverX
T10 sequence (P9WI81 whole entry): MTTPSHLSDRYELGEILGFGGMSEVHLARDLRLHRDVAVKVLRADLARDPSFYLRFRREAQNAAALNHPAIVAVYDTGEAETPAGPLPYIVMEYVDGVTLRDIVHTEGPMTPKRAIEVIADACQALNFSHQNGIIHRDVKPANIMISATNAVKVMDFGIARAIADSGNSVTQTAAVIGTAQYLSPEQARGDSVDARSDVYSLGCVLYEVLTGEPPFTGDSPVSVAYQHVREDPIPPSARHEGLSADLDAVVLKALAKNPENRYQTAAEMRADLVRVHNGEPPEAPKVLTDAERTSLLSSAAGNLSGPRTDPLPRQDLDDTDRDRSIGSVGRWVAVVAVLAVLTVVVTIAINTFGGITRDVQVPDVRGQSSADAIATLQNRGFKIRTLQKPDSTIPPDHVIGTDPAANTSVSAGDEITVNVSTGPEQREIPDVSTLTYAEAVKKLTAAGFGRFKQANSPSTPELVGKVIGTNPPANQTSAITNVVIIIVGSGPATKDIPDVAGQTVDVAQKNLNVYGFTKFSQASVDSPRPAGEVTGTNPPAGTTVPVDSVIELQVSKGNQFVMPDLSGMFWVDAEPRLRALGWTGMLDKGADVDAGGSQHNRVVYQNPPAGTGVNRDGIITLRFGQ
Procedure, shortened: as §1

Compound | remaining binding at 1 µM [1] [%] | remaining binding at 1 µM [2] [%] | remaining binding at 1 µM [3] [%] | remaining binding at 1 µM [4] [%] | remaining binding at 1 µM [5] [%] | remaining binding at 1 µM [6] [%] | remaining binding at 1 µM [7] [%] | remaining binding at 1 µM [8] [%] | remaining binding at 1 µM [9] [%] | remaining binding at 1 µM [10] [%]
Cc1ccc(C(=O)Nc2ccc(CN3CCN(C)CC3)c(C(F)(F)F)c2)cc1C#Cc1cnc2c(Nc3cnn(C)c3)cccn12 [Example 1, 4-methyl-3-((8-((1-methyl-1H-pyrazol-4-yl)amino)imidazo[1,2-a]pyridin-3-yl)ethynyl)-N-(4-((4-methylpiperazin-1-yl)methyl)-3-(trifluoromethyl)phenyl)benzamide] | 0 | 29 | 91 | 68 | 64 | 4 | 8 | 70 | 1 | 95
Cc1cn(-c2cc(NC(=O)c3ccc(C)c(C#Cc4cnc5c(Nc6cnn(C)c6)cccn45)c3)cc(C(F)(F)F)c2)cn1 [Example 12, 4-methyl-N-(3-(4-methyl-1H-imidazol-1-yl)-5-(trifluoromethyl)phenyl)-3-((8-((1-methyl-1H-pyrazol-4-yl)amino)imidazo[1,2-a]pyridin-3-yl)ethynyl)benzamide] | 5 | 100 | 85 | 100 | 91 | 29 | 75 | 100 | 11 | 100
Cc1ccc(NC(=O)C2(C(=O)Nc3ccc(F)cc3)CC2)cc1C#Cc1cnc2c(Nc3cnn(C(C)C)c3)cccn12 [Example 78] | 25 | 100 | 97 | 100 | 100 | 100 | 94 | 100 | 10 | 97
